What all share (assay type): functional
One assay has as its system Clostridium perfringens. Kind of assay: In vitro antibacterial activity against Clostridium perfringens 615.
The next assay concerns Enterococcus faecalis. Kind of assay: In vitro antibacterial activity against […] faecalis 850E.
In a further assay the test system is Pseudomonas aeruginosa. Kind of assay: In vitro antibacterial activity against Pseudomonas aeruginosa 1911.
Assay [1] deals with Staphylococcus aureus. Kind of assay: In vitro antibacterial activity against Staphylococcus aureus 853.
Assay [2] has as its system Staphylococcus aureus. Kind of assay: In vitro antibacterial activity against Staphylococcus aureus 663.
The subject of another assay is Escherichia coli. As to the kind of experiment: In vitro antibacterial activity against Escherichia coli 1850.
Assay [3] concerns Staphylococcus aureus. Kind of assay: In vitro antibacterial activity against Staphylococcus aureus 1131.

Here are results for three compounds from ChEMBL document CHEMBL1128984, “Synthesis and biological activity of novel tricyclic -lactams” (1996).

Where only a bound is given, the exact number is not on record here.

On to `C[C@@H](O)[C@H]1C(=O)N2C(C(=O)O)=C(SCCNC=N)C[C@H]12.O` [IMIPENEM], for which the MIC (in general, the least concentration at which growth counts as inhibited) against Clostridium perfringens was 0.03 µg/mL; with Enterococcus faecalis, 2 µg/mL; against Pseudomonas aeruginosa it was 4 µg/mL; with Staphylococcus aureus [1] it was 0.12 µg/mL; in the assay with Staphylococcus aureus [2], 0.06 µg/mL; against Escherichia coli, 0.5 µg/mL. 4 µg/mL was the least that counted as inhibitory in the assay with Staphylococcus aureus [3] (MIC).
For `CO[C@H]1CC[C@H]2C1=C(C(=O)[O-])N1C(=O)[C@H]([C@@H](C)O)[C@@H]21.[Na+]`, the MIC against Clostridium perfringens was determined as 0.12 µg/mL; against Enterococcus faecalis, 2 µg/mL; against Pseudomonas aeruginosa, 32 µg/mL; in the assay on Staphylococcus aureus [1], 0.5 µg/mL; against Staphylococcus aureus [2], 0.25 µg/mL; against Escherichia coli, 0.5 µg/mL. This compound also came in with an MIC with Staphylococcus aureus [3] of 8 µg/mL.
For the compound `C[C@@H](O)[C@H]1C(=O)N2C(C(=O)[O-])=C3CCC[C@H]3[C@H]12.[Na+]`, the MIC is 1 µg/mL with Clostridium perfringens; 16 µg/mL in the assay with Enterococcus faecalis; above 32 µg/mL against Pseudomonas aeruginosa; 0.5 µg/mL against Staphylococcus aureus [1]; 1 µg/mL in the assay on Staphylococcus aureus [2]; 2 µg/mL in the assay on Escherichia coli. Besides, the minimum inhibitory concentration (MIC) in the assay with Staphylococcus aureus [3] amounted to 8 µg/mL.
